Experimental data: patent US20240124504A1, “AROMATIC HETEROCYCLIC COMPOUND, AND PHARMACEUTICAL COMPOSITION AND APPLICATION THEREOF” (GT APEIRON THERAPEUTICS LIMITED, priority 2020, published 2024)

How the values were obtained:
[1] = Caco-2 membrane permeability and efflux rate; type: in vitro ADME; conditions: human, Caco-2, Caco-2, 5 μM
Protocol: The recovered Caco-2 cell suspension was seeded into a […] plate and cultured for 14-18 days. After being cultured for 14 days, the cells were fused and differentiated to be ready for a transport experiment. The Caco-2 cell plate was taken out from the incubator. Stock solutions of a to-be-tested compound and a control compound were formulated with DMSO and diluted with an HBSS (10 mM HEPES, pH 7.4) buffer to a final concentration of 5 μM. A test compound solution and a control drug solution were added to each well (top end) of an insert culture plate, and the HBSS (10 mM HEPES, pH 7.4) buffer was added to each well of a test compound receiving plate (basal end). When measuring the transport rate of the compound from the basal end to the top end, the test compound solution and the control drug solution were added to each well of the receiving plate (basal end), the HBSS (10 mM HEPES, pH 7.4) buffer solution was added to each well (top end) of the insert culture plate for the test compound solution, and incubation was carried out for 2 hours in a CO2 incubator at 37° C. After the transport experiment was completed, vortexing was carried out for 10 minutes at 1000 rpm. After sample quenching at each time point, LC/MS/MS analysis was carried out. A fluorescence value was measured after a two-hour transport experiment, a lucifer yellow solution was added in a transwell chamber (top end), a transport buffer solution was added in the basal end, and incubation was carried out for 30 minutes in the CO2 incubator at 37° C. The solution was taken out directly from the top end and the basal end (using basolateral wells) and transferred to a new 96-well plate. A cell fluorescence value was measured by a microplate reader (to detect membrane integrity), an excitation wavelength was […], and an emission wavelength was […]. All data were calculated by using Microsoft Excel, and a peak area was calculated according to chromatograms. An apparent permeability coefficient (Papp, unit: 10-6, cm/s) and an efflux rate (ER) of the compounds in Caco-2 cells were calculated by the specific concentrations of a receiving end and an administering end.

[2] = biological target: T1, CDK12 (aa686-1082)/cyclinK complex (Homo sapiens, UniProt Q9NYV4); assay: In-vitro enzymatic inhibitory activity testing, CDK12 inhibition assay (Caliper EZ Reader II); type: biochemical; conditions: CDK12/cyclinK 50 nM, 180 min at 27° C.; read-out: CDK12 IC50
T1 construct: A CDK12 (aa686-1082)/cyclinK complex (50 nM)
T1 sequence (Q9NYV4 686-1082, species assumed): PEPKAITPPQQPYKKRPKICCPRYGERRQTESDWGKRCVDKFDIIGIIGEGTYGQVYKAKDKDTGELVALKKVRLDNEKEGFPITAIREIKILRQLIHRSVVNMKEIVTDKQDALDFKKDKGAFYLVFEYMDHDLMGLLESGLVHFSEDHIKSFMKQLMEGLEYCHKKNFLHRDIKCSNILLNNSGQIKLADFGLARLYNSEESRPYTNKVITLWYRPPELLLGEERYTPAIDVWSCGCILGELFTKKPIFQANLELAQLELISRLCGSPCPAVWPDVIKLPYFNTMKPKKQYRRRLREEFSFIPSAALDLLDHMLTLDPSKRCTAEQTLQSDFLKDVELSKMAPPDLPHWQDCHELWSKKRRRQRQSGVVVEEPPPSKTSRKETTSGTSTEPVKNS
T1 sequence (O75909 whole entry partner, species assumed, the tested form may be a part): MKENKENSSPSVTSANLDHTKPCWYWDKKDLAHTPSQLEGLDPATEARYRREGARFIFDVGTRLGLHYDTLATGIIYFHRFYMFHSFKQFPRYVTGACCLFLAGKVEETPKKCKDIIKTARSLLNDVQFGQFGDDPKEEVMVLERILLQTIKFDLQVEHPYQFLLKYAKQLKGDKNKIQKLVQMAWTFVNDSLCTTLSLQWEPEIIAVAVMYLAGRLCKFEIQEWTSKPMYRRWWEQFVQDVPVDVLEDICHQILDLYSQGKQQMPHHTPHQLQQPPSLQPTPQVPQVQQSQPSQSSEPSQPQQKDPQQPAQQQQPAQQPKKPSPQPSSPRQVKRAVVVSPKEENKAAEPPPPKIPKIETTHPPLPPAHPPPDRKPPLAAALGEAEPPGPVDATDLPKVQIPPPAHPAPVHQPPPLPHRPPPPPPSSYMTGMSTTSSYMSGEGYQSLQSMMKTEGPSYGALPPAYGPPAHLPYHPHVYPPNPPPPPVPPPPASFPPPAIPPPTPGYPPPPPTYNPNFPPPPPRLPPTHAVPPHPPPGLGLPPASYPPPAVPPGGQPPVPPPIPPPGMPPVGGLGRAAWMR
How it was run: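 CDK12 (aa686-1082)/cyclinK complex at 50 nM was pre-incubated with compound for 10 min, then reacted 180 min at 27° C with ATP and 2 μM 5-FAM-CDK9tide in pH 6.5 MES buffer with 10 mM MgCl2. Reactions were EDTA-quenched and product resolved electrophoretically; IC50 from nonlinear curve fit.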

[3] = biological target: CDK7/cyclinH/MAT1 complex (Homo sapiens, UniProt P50613); assay: In-vitro enzymatic inhibitory activity testing, CDK7 inhibition assay (Caliper EZ Reader II); type: biochemical; conditions: CDK7/cyclinH/MAT1 6 nM, 180 min at 27° C.
Chain of CDK7/cyclinH/MAT1 complex (P50613 whole entry, species assumed): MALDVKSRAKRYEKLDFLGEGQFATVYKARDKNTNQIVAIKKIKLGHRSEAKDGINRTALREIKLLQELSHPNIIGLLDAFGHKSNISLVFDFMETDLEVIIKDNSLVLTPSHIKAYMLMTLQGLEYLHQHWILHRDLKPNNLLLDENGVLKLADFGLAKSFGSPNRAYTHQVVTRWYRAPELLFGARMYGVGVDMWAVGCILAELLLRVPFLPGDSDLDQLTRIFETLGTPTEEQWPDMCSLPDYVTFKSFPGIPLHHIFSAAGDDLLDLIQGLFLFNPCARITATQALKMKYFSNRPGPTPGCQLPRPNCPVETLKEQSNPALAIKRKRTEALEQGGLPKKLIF
Chain of CDK7/cyclinH/MAT1 complex (P51946 whole entry partner, species assumed): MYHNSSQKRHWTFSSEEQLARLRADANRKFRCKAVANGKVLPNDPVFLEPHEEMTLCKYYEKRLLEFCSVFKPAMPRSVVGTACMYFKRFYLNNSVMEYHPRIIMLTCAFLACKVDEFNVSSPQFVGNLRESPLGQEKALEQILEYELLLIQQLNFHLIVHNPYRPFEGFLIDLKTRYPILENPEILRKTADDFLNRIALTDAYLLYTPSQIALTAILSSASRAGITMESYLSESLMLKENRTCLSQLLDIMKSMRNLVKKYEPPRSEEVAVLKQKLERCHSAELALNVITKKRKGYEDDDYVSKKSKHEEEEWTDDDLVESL
Chain of CDK7/cyclinH/MAT1 complex (P51948 whole entry partner, species assumed): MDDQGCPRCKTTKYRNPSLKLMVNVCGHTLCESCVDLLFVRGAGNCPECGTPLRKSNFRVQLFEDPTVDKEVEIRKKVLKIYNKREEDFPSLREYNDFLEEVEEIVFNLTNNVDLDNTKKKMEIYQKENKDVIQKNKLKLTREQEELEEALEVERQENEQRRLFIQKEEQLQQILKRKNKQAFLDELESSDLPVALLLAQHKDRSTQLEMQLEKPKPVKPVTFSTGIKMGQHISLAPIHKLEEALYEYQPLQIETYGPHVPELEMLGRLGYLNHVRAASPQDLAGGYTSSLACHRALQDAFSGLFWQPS
How it was run: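 Enzyme preincubated 10 min with compound, then peptide substrate plus ATP added in 80 mM MES pH 6.5, 10 mM MgCl2 buffer; 180 min at 27 °C, stopped with EDTA.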

CDK2/cyclinE1 complex = CDK2/cyclinE1 complex (Homo sapiens, UniProt P24941); assay: In-vitro enzymatic inhibitory activity testing, CDK2 inhibition assay (Caliper EZ Reader II); type: biochemical; conditions: CDK2/cyclinE1 0.5 nM, 180 min at 27° C.
How it was run: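 CDK2/cyclinE1 (0.5 nM) phosphorylated 5-FAM-CDK7tide (2 μM) in MES buffer pH 6.5 with MgCl2, Tween 20 and BSA. Substrate and product were separated electrophoretically on a Caliper EZ Reader II. IC50 values came from nonlinear dose-response fits.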

[4] = system: human breast cancer cells HCC70; assay: Cell biological activity detection (CyQuant, 72 hours), HCC70; type: cell-based; conditions: Homo sapiens, HCC70, 72 h, incubation for 72 hours
How it was run: (§1)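 IC50 derived from CyQuant Direct nuclear staining (488 nm excitation) after 72 h compound exposure at 37 °C, 5% CO2. Compounds tested in 9 concentrations from 10 μM, 1:4 steps, 0.2% DMSO, on A2780 or HCC70 cells plated overnight at 2000/well in RPMI 1640 + 10% FBS.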

ovarian cancer A2780 = assay: Cell biological activity detection (CyQuant, 72 hours), A2780; type: cell-based, human; conditions: Homo sapiens, A2780, 72 h, A2780 cells, incubation for 72 hours
How it was run: as §1

CDK9/cyclinT1 complex = CDK9/cyclinT1 complex (Homo sapiens, UniProt P50750); assay: In-vitro enzymatic inhibitory activity testing, CDK9 inhibition assay (Caliper EZ Reader II); type: biochemical; conditions: CDK9/cyclinT1 8 nM, 180 min at 27° C.
Chain of CDK9/cyclinT1 complex (P50750 whole entry, species assumed): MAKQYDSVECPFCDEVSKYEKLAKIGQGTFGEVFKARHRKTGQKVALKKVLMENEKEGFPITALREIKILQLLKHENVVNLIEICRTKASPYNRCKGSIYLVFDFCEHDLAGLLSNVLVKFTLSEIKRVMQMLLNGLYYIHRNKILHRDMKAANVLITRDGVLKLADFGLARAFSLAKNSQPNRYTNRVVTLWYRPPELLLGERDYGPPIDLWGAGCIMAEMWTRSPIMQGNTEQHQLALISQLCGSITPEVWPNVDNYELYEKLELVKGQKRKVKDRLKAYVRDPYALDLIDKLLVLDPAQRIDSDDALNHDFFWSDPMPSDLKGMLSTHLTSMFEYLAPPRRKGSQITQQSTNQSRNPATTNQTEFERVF
Chain of CDK9/cyclinT1 complex (O60563 whole entry partner, species assumed): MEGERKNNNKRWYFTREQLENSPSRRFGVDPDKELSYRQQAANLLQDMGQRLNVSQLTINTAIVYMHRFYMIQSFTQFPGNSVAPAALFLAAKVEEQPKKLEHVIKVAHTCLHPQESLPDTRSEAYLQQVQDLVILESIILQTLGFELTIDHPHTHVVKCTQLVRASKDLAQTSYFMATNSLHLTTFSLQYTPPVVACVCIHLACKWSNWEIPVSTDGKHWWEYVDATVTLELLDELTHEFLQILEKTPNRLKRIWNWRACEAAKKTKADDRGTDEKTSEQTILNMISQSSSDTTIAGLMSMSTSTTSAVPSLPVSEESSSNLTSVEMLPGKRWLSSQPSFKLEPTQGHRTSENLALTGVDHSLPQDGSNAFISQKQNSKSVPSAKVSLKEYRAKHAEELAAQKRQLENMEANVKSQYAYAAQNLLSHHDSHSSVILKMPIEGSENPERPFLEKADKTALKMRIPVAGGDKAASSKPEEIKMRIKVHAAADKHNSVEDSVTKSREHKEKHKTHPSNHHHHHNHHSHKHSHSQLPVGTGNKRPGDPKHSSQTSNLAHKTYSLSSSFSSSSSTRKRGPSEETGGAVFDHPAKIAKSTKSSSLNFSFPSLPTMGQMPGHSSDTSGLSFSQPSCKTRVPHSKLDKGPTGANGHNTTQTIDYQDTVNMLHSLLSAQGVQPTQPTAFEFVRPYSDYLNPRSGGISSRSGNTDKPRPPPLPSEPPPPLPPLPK
How it was run: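 Phosphorylated and unphosphorylated fluorescent peptide were resolved by mobility-shift electrophoresis, with IC50 taken from a nonlinear regression of dose-response data. Reactions ran 180 min at 27 °C in MES buffer pH 6.5 with MgCl2, after 10 min enzyme–compound preincubation, using 8 nM CDK9/cyclinT1 and 5-FAM-CDK9tide.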

Row | Structure (SMILES) | Papp B→A at 2 h, 5 μM ([1]; basal end to top end) [×10⁻⁶ cm/s] | efflux ratio at 2 h, 5 μM ([1]; read-out: ER (efflux rate)) | Papp A→B at 2 h, 5 μM ([1]; top end to basal end) [×10⁻⁶ cm/s] | IC50 [2] [µM] | IC50 [3] [µM] | IC50 (CDK2/cyclinE1 complex) [µM] | IC50 (ovarian cancer A2780) [µM] | IC50 (CDK9/cyclinT1 complex) [µM] | IC50 [4] [µM]
1 | CP(C)(=O)c1cccc2c(-c3nc(N[C@H]4CCCNC4)ncc3C(F)(F)F)c[nH]c12 [A control compound WO2018013867 (353), reference compound] | 15.9 | 70.7 | 0.23 |  |  |  |  |  | 
2 | C[C@@H](CO)Nc1ncc(Br)c(-c2c[nH]c3c(P(C)(C)=O)cccc23)n1 [Compound 177, (S)-(3-(5-bromo-2-((1-hydroxypropan-2-yl)amino)pyrimidin-4-yl)-1H-indole-7-yl)dimethylphosphine oxide] |  |  |  | 5 to 50 | < 0.02 | 0.2 to 5 | < 0.02 | 5 to 50 | < 0.02
3 | C[C@@H](CO)Nc1ncc(C(F)(F)F)c(-c2c[nH]c3nc(C4=CCOCC4)ccc23)n1 [Compound 181, (S)-2-((4-(6-(3,6-dihydro-2H-pyran-4-yl)-1H-pyrrolo[2,3-b]pyridin-3-yl)-5-(trifluoromethyl)pyrimidin-2-yl)amino)propan-1-ol] |  |  |  | 5 to 50 | 0.02 to 0.2 | 0.2 to 5 | 0.02 to 0.2 | > 50 | 0.2 to 5

Further lines, with some results ahead:

Row | Papp B→A at 2 h, 5 μM ([1]; basal end to top end) [×10⁻⁶ cm/s] | efflux ratio at 2 h, 5 μM ([1]; read-out: ER (efflux rate)) | Papp A→B at 2 h, 5 μM ([1]; top end to basal end) [×10⁻⁶ cm/s] | IC50 [2] [µM] | IC50 [3] [µM] | IC50 (CDK2/cyclinE1 complex) [µM] | IC50 (ovarian cancer A2780) [µM] | IC50 (CDK9/cyclinT1 complex) [µM] | Structure (SMILES) | IC50 [4] [µM]
4 |  |  |  | > 50 | 0.02 to 0.2 | 5 to 50 | 0.02 to 0.2 | > 50 | Cc1cnc(N[C@@H](C)CO)nc1-c1c[nH]c2c(P(C)(C)=O)cccc12 [Compound 178] | 0.2 to 5
5 |  |  |  | > 50 | < 0.02 | 5 to 50 | < 0.02 | > 50 | CP(C)(=O)c1cccc2c(-c3nc(NC(CO)CO)ncc3C(F)(F)F)c[nH]c12 [Compound 194, (3-(2-((1,3-dihydroxypropan-2-yl)amino)-5-(trifluoromethyl)pyrimidin-4-yl)-1H-indole-7-yl)dimethylphosphine oxide] | 0.02 to 0.2
